Data on two compounds can be found in US4569926A, “Stimulation of phagocytosis with somatostatin” (Brigham and Women's Hospital, priority 1983, dated 1986).

Assay [1] concerns Kupffer cells and RES. Description: hepatic uptake of colloidal carbon. It is filed as in vivo, rat. The conditions noted are these: zymosan 2,500 μg/100 g i.v. twice, 48 and 24 hr before carbon; GdCl3 500 μg/100 g i.v. once, 24 hour before (FIG. 3). As to the method:
(§1) All of the experiments were performed in female Spraque-Dawley rats (ESS Laboratories, Lynnfield, Mass.) with an initial body weight of 150-180 g, and with unlimited access to Purina laboratory chow and tap water. Control and experimental groups consisted of 3-4 rats. Each experiment was repeated at least twice and the results were pooled. Linear or cyclic somatostatin (Serono) was injected under mild ether anesthesia at 10, 50, 100 or 250 μg in 0.5 ml of saline into the jugular vein once daily for 4 consecutive days in the dose-response study (FIG. 1). Control animals were injected with the same amount of saline. In the time-response study, 0, 1, 2, 3 or 4 daily doses of somatostatin, 50 μg, were injected i.v. (FIG. 2). In the comparative experiments, somatostatin, 250 μg, i.v., was given as in the first study, and standard doses of zymosan (Sigma 2,500 μg/100 g i.v.; twice, 48 and 24 hr before colloidal carbon) and the reticuloendothelial system (RES) blocker gadolinium chloride (Sigma; 500 μg/100 g i.v.; once, 24 hour prior to india ink) were administered to additional groups of rats (FIG. 3). […] A piece of liver was digested in concentrated mineral acid, and, following organic extraction, the concentration of carbon, as in blood hemolysates, was measured spectrophotometrically at 660 nm using the method of Takahashi and Matsuoka (J. Toxicol. Sci., S., 1 (1980).

Assay [2] concerns Kupffer cells and RES. The assay is described as follows: colloidal carbon clearance from the blood (phagocytic index K). Type of assay: in vivo, rat. The conditions noted are these: for clearing potency order by change in K caused by 100 μg of treatment (ΔK/100 μg): crude comparison, rank order. As to the method:
All of the experiments were performed in female Spraque-Dawley rats (ESS Laboratories, Lynnfield, Mass.) with an initial body weight of 150-180 g, and with unlimited access to Purina laboratory chow and tap water. Control and experimental groups consisted of 3-4 rats. Each experiment was repeated at least twice and the results were pooled. Linear or cyclic somatostatin (Serono) was injected under mild ether anesthesia at 10, 50, 100 or 250 μg in 0.5 ml of saline into the jugular vein once daily for 4 consecutive days in the dose-response study (FIG. 1). Control animals were injected with the same amount of saline. In the time-response study, 0, 1, 2, 3 or 4 daily doses of somatostatin, 50 μg, were injected i.v. (FIG. 2). In the comparative experiments, somatostatin, 250 μg, i.v., was given as in the first study, and standard doses of zymosan (Sigma 2,500 μg/100 g i.v.; twice, 48 and 24 hr before colloidal carbon) and the reticuloendothelial system (RES) blocker gadolinium chloride (Sigma; 500 μg/100 g i.v.; once, 24 hour prior to india ink) were administered to additional groups of rats (FIG. 3). In all of the experiments, 0.1 ml/100 g of the supernatant of centrifuged (3000 rpm/15 min) colloidal carbon (Wagner's india ink) was injected i.v. under mild ether anesthesia. Blood samples (50 μl ) were obtained with heparinized glass capillaries and by puncture of the retro-orbital venous plexus at 3, 6, 12 and 24 minutes after the administration of carbon. The blood samples were lysed in 2 ml of 0.1% Na2 CO3 solution. After 24 minutes, the rats were killed, and the livers were perfused through the portal vein with 20 ml saline to remove trapped blood. Samples of liver, spleen, lung and kidney were fixed in 10% formalin and subsequently processed for light microscopy. A piece of liver was digested in concentrated mineral acid, and, following organic extraction, the concentration of carbon, as in blood hemolysates, was measured spectrophotometrically at 660 nm using the method of Takahashi and Matsuoka (J. Toxicol. Sci., S., 1 (1980).
The phagocytic index or K value was calculated as described by others (Takahashi and Matsuoka, ibid; Biozzi et al, J. Exp. Pathol., 34, 441 (1953)) to indicate the carbon clearance for the blood. Since it was evident that the effect of treatment was maximal on carbon clearance during the first 6 or 12 minutes, K values were obtained only for this time interval. For statistical evaluation, Student's two-tailed t-test was used.

For assay [3], the system named is Kupffer cells. Description: light microscopic examination of liver sections for carbon particles. The settings on record: periportal areas, 24 minutes after carbon. Type of assay: in vivo, rat. As to the method:
as §1

The conditions of assay [4]: in vivo; cited from earlier work.
For assay [5] the following is noted: in vivo; cited from earlier work. This is another data set of the same source.
For assay [6] the following is noted: pretreatment with exogenous somatostatin; cited from earlier work.

For `[Cl][Gd]([Cl])[Cl]` [GdCl3, gadolinium chloride], in assay [1], the “uptake of the carbon to the liver, comparative experiment” value is “inhibited”. The “clearing potency order by change in K caused by 100 μg of treatment (ΔK/100 μg)” value in assay [2] is recorded as “somatostatin >zymosan >GdCl3”. The “carbon clearance from the blood, comparative experiment” value in assay [2] (zymosan 2,500 μg/100 g i.v. twice, 48 and 24 hr before carbon, GdCl3 500 μg/100 g i.v. once, 24 hour before (FIG. 3)) is on record as “inhibited”.

Take somatostatin: the “carbon deposition in liver macrophages (light microscopy)” value in assay [3] was “caused numerous macrophages to take up carbons”. In assay [4], the “effect on adrenal and lung lesions” value was “beneficial effect”. Further, the “colloidal carbon clearance from the blood, dose-response” value in assay [2] (10 μg i.v. once daily for 4 days (FIG. 1)) is reported as “less effective than the other doses”. Besides, the “clearing potency order by change in K caused by 100 μg of treatment (ΔK/100 μg)” value in assay [2] was “somatostatin >zymosan >GdCl3”. For the same compound, the “colloidal carbon clearance from the blood, dose-response” value in assay [2] (doses of 50, 100 or 250 μg i.v. once daily for 4 days (FIG. 1)) is recorded as “very similar results”. The “colloidal carbon clearance from the blood” value in assay [2] (female Sprague-Dawley rats, somatostatin i.v. once daily for 4 days vs saline, effect most dramatic during first 6-12 minutes (FIG. 1)) is “markedly accelerated”. Moreover, the “phagocytic index or K value” in assay [2] (time-response study, 50 μg i.v., three or four doses (one per day) (FIG. 2)) is reported as “significantly enhanced”. Also, in assay [5], the “effect on experimentally induced pancreatitis” value was “beneficial effect”. Further, in assay [6], the cysteamine-induced duodenal ulcer entry is given as “prevents” and the gastric acid output entry is “minimal inhibition”.
